Among the data in article PMC12400448 (Chemical Science, 2025) are IC50 values, retold here.

What is called IC50 is the concentration at which inhibition is half-maximal. High values mean weaker potency in that assay, low ones greater potency in that assay.

The test concerns the target alkaline phosphatase (ALP). The test can be described thus: fluorescence enzyme inhibition assay with compd. […] as substrate. The test is classed as biochemical.

SMILES strings stand for the structures.

`[O]=[V]([OH])([OH])[OH]` [sodium orthovanadate] yielded a concentration for half-maximal inhibition (IC50) of 10.2 µM.
